Measurements as given in patent US20220259593A1, “CONTROL OF MAMMALIAN GENE DOSAGE USING CRISPR” (The Regents of the University of California, priority 2019, published 2022).

Columns and labels:
K562 CRISPRi cells [1] = test: Perturb-seq pooled growth measurement (sgRNA counts, growth phenotype γ, relative activity); type: cell-based, human; settings: for gamma_day5 / gamma_day10: pooled growth phenotype γ of the Perturb-seq sgRNA; for gamma_day5: day 5, K562 CRISPRi cells; for gamma_day10: day 10, K562 CRISPRi cells; for relative_activity_day5: γ relative to perfectly matched sgRNA (_00) of the same gene, day 5
Method in brief: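 CRISPRi K562 cells from the Perturb-seq transduced pool; 500,000-cell samples taken days two, seven and twelve post-transduction. sgRNA amplicons from genomic DNA sequenced; growth phenotypes from normalized sgRNA abundances at days seven and twelve versus day two. Relative activity assigned from day seven (five days' growth).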

K562 CRISPRi cells [2] = test: as above; type: cell-based, human; settings: γ relative to perfectly matched sgRNA (_00) of the same gene, day 10

Substance	gamma_day5 (K562 CRISPRi cells [1])	gamma_day10 (K562 CRISPRi cells [1])	relative_activity_day5 (K562 CRISPRi cells [1])	relative_activity_day10 (K562 CRISPRi cells [2])
POLR1D_ + _28196016.23-P1_07 (guide GGGAAGCAAGGAGCGACCGA; listed as DNA, chemistry not fully specified)	−0.3019	−0.243	0.3976	0.3911
CAD_ + _27440280.23-P1P2_03 (guide GGCTGGTGAGAAGCCGGGCG; listed as DNA, chemistry not fully specified)	−0.7687	−0.6267	0.9965	0.9162
DBR1_ + _137893744.23-P1P2_07 (guide GTTTGCAGGGGTCTACACCC; listed as DNA, chemistry not fully specified)	−0.5167	−0.468	1.134	0.9563
GATA1_ −_48645022.23-P1P2_06 (guide GTGAGCTTGCGACATCCCCA; listed as DNA, chemistry not fully specified)	−0.5073	−0.3486	0.5269	0.5666
RPS15_ −_1438413.23-P1P2_01 (guide GACCAAACCGATCTCTTCTG; listed as DNA, chemistry not fully specified)	0.006616	0.001422	−0.01064	−0.003782
TUBB_ + _30688126.23-P1_01 (guide GCAGCAGGAAGGTTCTGAGA; listed as DNA, chemistry not fully specified)	−0.926	−0.6119	1.032	0.8743
CAD_ + _27440280.23-P1P2_06 (guide GGCTGGAGAGTAGCCGGGCG; listed as DNA, chemistry not fully specified)	−0.3975	−0.3141	0.5153	0.4592
RPS14_ + _149829238.23-P1P2_08 (guide GAGGCCCGGGCTCGACAATC; listed as DNA, chemistry not fully specified)	0.02738	−0.0006109	−0.03462	0.001223
RPS14_ + _149829238.23-P1P2_13 (guide GAGGCCCGGGCGCGACAGTC; listed as DNA, chemistry not fully specified)	−0.2119	−0.1559	0.268	0.3122
CAD_ + _27440280.23-P1P2_00 (guide GGCTGGAGAGAAGCCGGGCG; listed as DNA, chemistry not fully specified)	−0.7714	−0.684	1	1
RPS15_ −_1438413.23-P1P2_02 (guide GACCAAGGCGATCTCTTCTG; listed as DNA, chemistry not fully specified)	−0.4922	−0.3145	0.7923	0.8366
COX11_ + _53045977.23-P1P2_00 (guide GGCTCTGGCGTCCTGGATGG; listed as DNA, chemistry not fully specified)	−0.1817	−0.2988	1	1
CDC23_ −_137548987.23-P1P2_04 (guide GACAGCCAACGGGACCATGG; listed as DNA, chemistry not fully specified)	−0.8887	−0.5364	0.7556	0.8148
RPS18_ + _33239917.23-P1P2_02 (guide GCTGGGATGCCGCTGGATCA; listed as DNA, chemistry not fully specified)	−0.4898	−0.3191	0.5995	0.6345
MTOR_ + _11322547.23-P1P2_00 (guide GGGCAGGGGGCCTGAAGCGG; listed as DNA, chemistry not fully specified)	−0.6872	−0.5618	1	1
